The NIST ThermoML archive (doi:10.1016/j.jct.2011.08.016)
Numbers after ± are expanded uncertainties.

Assay: xn = mol fraction of the nth substance listed
Details: Liquid, Vibrating tube method

## CCCCCCCCCC [decane] + CCCCCCC
313.16 K, 24000 kPa, x2 = 0.0531
  mass density: 731.27 ± 0.53 kg/m3
313.16 K, 24000 kPa, x2 = 0.2594
  mass density: 724.32 ± 0.54 kg/m3
313.16 K, 25000 kPa, x2 = 0.0531
  mass density: 731.84 ± 0.53 kg/m3
313.16 K, 25000 kPa, x2 = 0.2594
  mass density: 724.92 ± 0.54 kg/m3
313.17 K, 1000 kPa, x2 = 0.952
  mass density: 671.13 ± 0.43 kg/m3
313.17 K, 2000 kPa, x2 = 0.952
  mass density: 672.16 ± 0.44 kg/m3
313.17 K, 3000 kPa, x2 = 0.952
  mass density: 673.18 ± 0.44 kg/m3
313.17 K, 4000 kPa, x2 = 0.952
  mass density: 674.17 ± 0.45 kg/m3
313.17 K, 5000 kPa, x2 = 0.952
  mass density: 675.18 ± 0.45 kg/m3
313.17 K, 6000 kPa, x2 = 0.952
  mass density: 676.18 ± 0.46 kg/m3
313.17 K, 7000 kPa, x2 = 0.952
  mass density: 677.15 ± 0.46 kg/m3
313.17 K, 8000 kPa, x2 = 0.952
  mass density: 678.12 ± 0.47 kg/m3
313.17 K, 9000 kPa, x2 = 0.952
  mass density: 679.08 ± 0.48 kg/m3
313.17 K, 10000 kPa, x2 = 0.952
  mass density: 680.03 ± 0.48 kg/m3
313.17 K, 10990 kPa, x2 = 0.952
  mass density: 680.95 ± 0.49 kg/m3
313.17 K, 12000 kPa, x2 = 0.952
  mass density: 681.86 ± 0.5 kg/m3
313.17 K, 13000 kPa, x2 = 0.952
  mass density: 682.77 ± 0.5 kg/m3
313.17 K, 14000 kPa, x2 = 0.952
  mass density: 683.65 ± 0.51 kg/m3
313.17 K, 15000 kPa, x2 = 0.952
  mass density: 684.52 ± 0.52 kg/m3
313.17 K, 16000 kPa, x2 = 0.952
  mass density: 685.39 ± 0.52 kg/m3
313.17 K, 17000 kPa, x2 = 0.952
  mass density: 686.24 ± 0.53 kg/m3
313.17 K, 18000 kPa, x2 = 0.952
  mass density: 687.08 ± 0.54 kg/m3
313.17 K, 19000 kPa, x2 = 0.952
  mass density: 687.9 ± 0.54 kg/m3
313.17 K, 20000 kPa, x2 = 0.952
  mass density: 688.71 ± 0.55 kg/m3
313.17 K, 21000 kPa, x2 = 0.952
  mass density: 689.52 ± 0.56 kg/m3
313.17 K, 22000 kPa, x2 = 0.952
  mass density: 690.29 ± 0.57 kg/m3
313.17 K, 23000 kPa, x2 = 0.952
  mass density: 691.05 ± 0.57 kg/m3
313.17 K, 24000 kPa, x2 = 0.952
  mass density: 691.82 ± 0.58 kg/m3
313.17 K, 25000 kPa, x2 = 0.952
  mass density: 692.57 ± 0.59 kg/m3
313.18 K, 1000 kPa, x2 = 0.5219
  mass density: 695.19 ± 0.42 kg/m3
313.18 K, 1000 kPa, x2 = 0.777
  mass density: 681.87 ± 0.43 kg/m3
313.18 K, 2000 kPa, x2 = 0.5219
  mass density: 696.01 ± 0.42 kg/m3
313.18 K, 2000 kPa, x2 = 0.777
  mass density: 682.77 ± 0.43 kg/m3
313.18 K, 3000 kPa, x2 = 0.5219
  mass density: 696.84 ± 0.43 kg/m3
313.18 K, 3000 kPa, x2 = 0.777
  mass density: 683.7 ± 0.43 kg/m3
313.18 K, 4000 kPa, x2 = 0.5219
  mass density: 697.74 ± 0.43 kg/m3
313.18 K, 4000 kPa, x2 = 0.777
  mass density: 684.64 ± 0.44 kg/m3
313.18 K, 5000 kPa, x2 = 0.5219
  mass density: 698.6 ± 0.44 kg/m3
313.18 K, 5000 kPa, x2 = 0.777
  mass density: 685.58 ± 0.45 kg/m3
313.18 K, 6000 kPa, x2 = 0.5219
  mass density: 699.5 ± 0.44 kg/m3
313.18 K, 6000 kPa, x2 = 0.777
  mass density: 686.52 ± 0.45 kg/m3
313.18 K, 7000 kPa, x2 = 0.5219
  mass density: 700.44 ± 0.45 kg/m3
313.18 K, 7000 kPa, x2 = 0.777
  mass density: 687.47 ± 0.46 kg/m3
313.18 K, 8000 kPa, x2 = 0.5219
  mass density: 701.28 ± 0.45 kg/m3
313.18 K, 8000 kPa, x2 = 0.777
  mass density: 688.4 ± 0.46 kg/m3
313.18 K, 9000 kPa, x2 = 0.5219
  mass density: 702.17 ± 0.46 kg/m3
313.18 K, 9000 kPa, x2 = 0.777
  mass density: 689.32 ± 0.47 kg/m3
